Results: PubChem BioAssay (NCI)
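Grown in 96-well plates, cells were treated for 48 hours with each compound at five concentrations. Insufficient inhibition: endpoint recorded as highest concentration tested. TGI marks complete inhibition of growth.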

Legend:
Assay in all cases: NCI anticancer screen, dose series, 48 h
XF 498 CNS = test system: XF 498 CNS
SNB-78 CNS = test system: SNB-78 CNS
SF-268 CNS = test system: SF-268 CNS
SK-MEL-2 melanoma = test system: SK-MEL-2 melanoma
SNB-19 CNS = test system: SNB-19 CNS
UACC-62 melanoma = test system: UACC-62 melanoma
K-562 leukemia = test system: K-562 leukemia
SN12C renal = test system: SN12C renal
UACC-257 melanoma = test system: UACC-257 melanoma
HL-60(TB) leukemia = test system: HL-60(TB) leukemia
NCI-H23 lung = test system: NCI-H23 lung
SW-620 colon = test system: SW-620 colon
HS 578T breast = test system: HS 578T breast
A549 NSCLC = test system: A549 NSCLC
HOP-18 NSCLC = test system: HOP-18 NSCLC
HT29 colon = test system: HT29 colon
SK-MEL-28 melanoma = test system: SK-MEL-28 melanoma
M19-MEL melanoma = test system: M19-MEL melanoma
OVCAR-4 ovarian = test system: OVCAR-4 ovarian
LXFL 529 NSCLC = test system: LXFL 529 NSCLC
NCI-H460 lung = test system: NCI-H460 lung
NCI-H226 lung = test system: NCI-H226 lung
BT-549 breast = test system: BT-549 breast
IGROV1 ovarian = test system: IGROV1 ovarian
OVCAR-8 ovarian = test system: OVCAR-8 ovarian
SK-MEL-5 melanoma = test system: SK-MEL-5 melanoma
TK-10 renal = test system: TK-10 renal
M14 melanoma = test system: M14 melanoma
MOLT-4 leukemia = test system: MOLT-4 leukemia
MCF7 breast = test system: MCF7 breast
KM12 colon = test system: KM12 colon
DU-145 prostate = test system: DU-145 prostate
HCC-2998 colon = test system: HCC-2998 colon
NCI-H522 lung = test system: NCI-H522 lung
UO-31 renal = test system: UO-31 renal
MALME-3M melanoma = test system: MALME-3M melanoma
CCRF-CEM leukemia = test system: CCRF-CEM leukemia
OVCAR-3 ovarian = test system: OVCAR-3 ovarian
RPMI-8226 leukemia = test system: RPMI-8226 leukemia
SR leukemia = test system: SR leukemia
MDA-MB-231 breast = test system: MDA-MB-231 breast
ACHN renal = test system: ACHN renal
DMS 114 small cell lung = test system: DMS 114 small cell lung
T-47D breast = test system: T-47D breast
PC-3 prostate = test system: PC-3 prostate
HCT-116 colon = test system: HCT-116 colon
HOP-92 NSCLC = test system: HOP-92 NSCLC
RXF 393 renal = test system: RXF 393 renal
HOP-62 NSCLC = test system: HOP-62 NSCLC
786-0 renal = test system: 786-0 renal
HCT-15 colon = test system: HCT-15 colon
U251 CNS = test system: U251 CNS
NCI/ADR-RES ovarian = test system: NCI/ADR-RES ovarian
OVCAR-5 ovarian = test system: OVCAR-5 ovarian
SF-295 CNS = test system: SF-295 CNS
COLO 205 colon = test system: COLO 205 colon
SNB-75 CNS = test system: SNB-75 CNS
DLD-1 colon = test system: DLD-1 colon
MDA-MB-435 = test system: MDA-MB-435
EKVX NSCLC = test system: EKVX NSCLC
DMS 273 small cell lung = test system: DMS 273 small cell lung
SK-OV-3 ovarian = test system: SK-OV-3 ovarian
A498 renal = test system: A498 renal
MDA-N = test system: MDA-N
LOX IMVI melanoma = test system: LOX IMVI melanoma
KM20L2 colon = test system: KM20L2 colon
SF-539 CNS = test system: SF-539 CNS
CAKI-1 renal = test system: CAKI-1 renal
RXF-631 renal = test system: RXF-631 renal

Structure (SMILES): COc1ccc(C(=O)/C=C/c2ccc(OCC(=O)N3CCN(c4ccccc4)CC3)cc2)cc1
- TGI (XF 498 CNS): > 93.9 µM
- TGI (SNB-78 CNS): 54.8 µM
- TGI (SF-268 CNS): > 100 µM
- TGI (SK-MEL-2 melanoma): > 100 µM
- TGI (SNB-19 CNS): 65.1 µM
- TGI (UACC-62 melanoma): > 100 µM
- TGI (K-562 leukemia): > 100 µM
- TGI (SN12C renal): > 100 µM
- TGI (UACC-257 melanoma): > 100 µM
- TGI (HL-60(TB) leukemia): > 67.3 µM
- TGI (NCI-H23 lung): > 100 µM
- TGI (SW-620 colon): > 100 µM
- TGI (HS 578T breast): > 76.5 µM
- TGI (A549 NSCLC): > 100 µM
- TGI (HOP-18 NSCLC): > 100 µM
- TGI (HT29 colon): > 100 µM
- TGI (SK-MEL-28 melanoma): > 100 µM
- TGI (M19-MEL melanoma): > 100 µM
- TGI (OVCAR-4 ovarian): > 100 µM
- TGI (LXFL 529 NSCLC): > 100 µM
- TGI (NCI-H460 lung): > 100 µM
- TGI (NCI-H226 lung): > 100 µM
- TGI (BT-549 breast): > 77.3 µM
- TGI (IGROV1 ovarian): > 65.8 µM
- TGI (OVCAR-8 ovarian): > 100 µM
- TGI (SK-MEL-5 melanoma): > 85.1 µM
- TGI (TK-10 renal): 89.2 µM
- TGI (M14 melanoma): > 100 µM
- TGI (MOLT-4 leukemia): > 100 µM
- TGI (MCF7 breast): > 100 µM
- TGI (KM12 colon): > 100 µM
- TGI (DU-145 prostate): > 100 µM
- TGI (HCC-2998 colon): > 100 µM
- TGI (NCI-H522 lung): > 45.8 µM
- TGI (UO-31 renal): > 94.7 µM
- TGI (MALME-3M melanoma): > 100 µM
- TGI (CCRF-CEM leukemia): > 100 µM
- TGI (OVCAR-3 ovarian): > 100 µM
- TGI (RPMI-8226 leukemia): > 77.8 µM
- TGI (SR leukemia): > 60.4 µM
- TGI (MDA-MB-231 breast): > 53.2 µM
- TGI (ACHN renal): > 100 µM
- TGI (DMS 114 small cell lung): > 100 µM
- TGI (T-47D breast): > 100 µM
- TGI (PC-3 prostate): > 100 µM
- TGI (HCT-116 colon): > 100 µM
- TGI (HOP-92 NSCLC): 51.3 µM
- TGI (RXF 393 renal): 74 µM
- TGI (HOP-62 NSCLC): > 79.6 µM
- TGI (786-0 renal): > 77.3 µM
- TGI (HCT-15 colon): > 100 µM
- TGI (U251 CNS): > 83.5 µM
- TGI (NCI/ADR-RES ovarian): > 100 µM
- TGI (OVCAR-5 ovarian): > 100 µM
- TGI (SF-295 CNS): 84.7 µM
- TGI (COLO 205 colon): > 75.2 µM
- TGI (SNB-75 CNS): 62.5 µM
- TGI (DLD-1 colon): > 100 µM
- TGI (MDA-MB-435): > 100 µM
- TGI (EKVX NSCLC): > 90.4 µM
- TGI (DMS 273 small cell lung): > 100 µM
- TGI (SK-OV-3 ovarian): 66 µM
- TGI (A498 renal): > 93.9 µM
- TGI (MDA-N): > 100 µM
- TGI (LOX IMVI melanoma): > 100 µM
- TGI (KM20L2 colon): > 100 µM
- TGI (SF-539 CNS): 51.7 µM
- TGI (CAKI-1 renal): > 100 µM

Structure (SMILES): COc1cc(/C=C2/C(=O)N(C(=O)c3ccc(Cl)cc3)N=C2C)cc(OC)c1OC
- TGI (XF 498 CNS): > 100 µM
- TGI (SNB-78 CNS): > 100 µM
- TGI (SF-268 CNS): > 100 µM
- TGI (SK-MEL-2 melanoma): > 100 µM
- TGI (SNB-19 CNS): > 100 µM
- TGI (UACC-62 melanoma): > 100 µM
- TGI (K-562 leukemia): > 100 µM
- TGI (SN12C renal): > 100 µM
- TGI (UACC-257 melanoma): > 100 µM
- TGI (HL-60(TB) leukemia): > 100 µM
- TGI (NCI-H23 lung): > 100 µM
- TGI (SW-620 colon): > 100 µM
- TGI (A549 NSCLC): > 100 µM
- TGI (HT29 colon): > 100 µM
- TGI (SK-MEL-28 melanoma): > 100 µM
- TGI (M19-MEL melanoma): > 100 µM
- TGI (OVCAR-4 ovarian): > 100 µM
- TGI (LXFL 529 NSCLC): > 100 µM
- TGI (NCI-H460 lung): > 100 µM
- TGI (IGROV1 ovarian): > 100 µM
- TGI (OVCAR-8 ovarian): > 100 µM
- TGI (SK-MEL-5 melanoma): > 100 µM
- TGI (TK-10 renal): > 100 µM
- TGI (M14 melanoma): > 100 µM
- TGI (MOLT-4 leukemia): > 100 µM
- TGI (KM12 colon): > 100 µM
- TGI (HCC-2998 colon): > 100 µM
- TGI (NCI-H522 lung): > 100 µM
- TGI (UO-31 renal): > 100 µM
- TGI (MALME-3M melanoma): > 100 µM
- TGI (CCRF-CEM leukemia): > 100 µM
- TGI (OVCAR-3 ovarian): > 100 µM
- TGI (RPMI-8226 leukemia): > 100 µM
- TGI (ACHN renal): > 100 µM
- TGI (HCT-116 colon): > 100 µM
- TGI (HOP-92 NSCLC): > 100 µM
- TGI (RXF 393 renal): > 100 µM
- TGI (786-0 renal): > 100 µM
- TGI (HCT-15 colon): > 100 µM
- TGI (U251 CNS): > 100 µM
- TGI (OVCAR-5 ovarian): > 100 µM
- TGI (SF-295 CNS): > 100 µM
- TGI (COLO 205 colon): > 100 µM
- TGI (DLD-1 colon): > 100 µM
- TGI (EKVX NSCLC): > 100 µM
- TGI (SK-OV-3 ovarian): > 100 µM
- TGI (A498 renal): > 100 µM
- TGI (LOX IMVI melanoma): > 100 µM
- TGI (KM20L2 colon): > 100 µM
- TGI (SF-539 CNS): > 100 µM
- TGI (CAKI-1 renal): > 100 µM

Structure (SMILES): Cn1c2cc(O)cc(O)c2c(=O)c2c([N+](=O)[O-])cccc21
- TGI (SNB-78 CNS): > 100 µM
- TGI (SF-268 CNS): > 100 µM
- TGI (SK-MEL-2 melanoma): > 100 µM
- TGI (SNB-19 CNS): > 100 µM
- TGI (UACC-62 melanoma): > 100 µM
- TGI (K-562 leukemia): > 100 µM
- TGI (SN12C renal): > 100 µM
- TGI (UACC-257 melanoma): > 100 µM
- TGI (HL-60(TB) leukemia): > 100 µM
- TGI (NCI-H23 lung): > 100 µM
- TGI (SW-620 colon): > 100 µM
- TGI (A549 NSCLC): > 100 µM
- TGI (HOP-18 NSCLC): > 100 µM
- TGI (HT29 colon): > 100 µM
- TGI (SK-MEL-28 melanoma): > 100 µM
- TGI (OVCAR-4 ovarian): > 100 µM
- TGI (LXFL 529 NSCLC): > 100 µM
- TGI (NCI-H460 lung): > 100 µM
- TGI (NCI-H226 lung): > 100 µM
- TGI (IGROV1 ovarian): > 100 µM
- TGI (OVCAR-8 ovarian): > 100 µM
- TGI (SK-MEL-5 melanoma): > 100 µM
- TGI (TK-10 renal): > 100 µM
- TGI (M14 melanoma): > 100 µM
- TGI (MOLT-4 leukemia): > 100 µM
- TGI (KM12 colon): > 100 µM
- TGI (HCC-2998 colon): > 100 µM
- TGI (NCI-H522 lung): > 100 µM
- TGI (UO-31 renal): > 100 µM
- TGI (MALME-3M melanoma): > 100 µM
- TGI (CCRF-CEM leukemia): > 100 µM
- TGI (OVCAR-3 ovarian): > 100 µM
- TGI (RPMI-8226 leukemia): > 100 µM
- TGI (SR leukemia): > 100 µM
- TGI (ACHN renal): > 100 µM
- TGI (DMS 114 small cell lung): > 100 µM
- TGI (HCT-116 colon): > 100 µM
- TGI (HOP-92 NSCLC): > 100 µM
- TGI (RXF 393 renal): > 100 µM
- TGI (RXF-631 renal): > 100 µM
- TGI (HOP-62 NSCLC): > 100 µM
- TGI (786-0 renal): > 100 µM
- TGI (HCT-15 colon): > 100 µM
- TGI (U251 CNS): > 100 µM
- TGI (OVCAR-5 ovarian): > 100 µM
- TGI (SF-295 CNS): > 100 µM
- TGI (COLO 205 colon): > 100 µM
- TGI (SNB-75 CNS): > 100 µM
- TGI (DLD-1 colon): > 100 µM
- TGI (EKVX NSCLC): > 100 µM
- TGI (DMS 273 small cell lung): > 100 µM
- TGI (SK-OV-3 ovarian): > 100 µM
- TGI (A498 renal): > 100 µM
- TGI (LOX IMVI melanoma): > 100 µM
- TGI (KM20L2 colon): > 100 µM
- TGI (SF-539 CNS): > 100 µM
- TGI (CAKI-1 renal): > 100 µM
